# In the RepoRT retention time repository (doi:10.1016/j.chroma.2015.11.014):
# Test: RP, Agilent ZORBAX Eclipse Plus C18, 150 × 2.1 mm, 3.5 µm, 40 °C, 0.3 mL/min, estimated dead time 1.1 min; A: water + 0.1% formic acid; B: acetonitrile + 0.1% formic acid; gradient (min/%B) 0/2 1/2 2/20 16.5/98 22/98
# Details: stereoisomer not certain
row,SMILES,LC retention time [min]
1,c1ccc(P(=N[P+](c2ccccc2)(c2ccccc2)c2ccccc2)(c2ccccc2)c2ccccc2)cc1,12.3
2,CCCCCCCCCCC(C(=O)c1ccc(OC)c(OC)c1)[N+](C)(C)C (stereo unspecified),10.9
3,CC(=O)Nc1cc(NC(C)=O)cc(C(=O)O)c1,5.22
4,CC(C)c1nc(CN(C)C(=O)NC(C(=O)NC(Cc2ccccc2)CC(O)C(Cc2ccccc2)NC(=O)OCc2cncs2)C(C)C)cs1 (stereo unspecified),12.7
5,CC12CCC(=O)C=C1CCC1C2C(=O)CC2(C)C1CCC2(O)C(=O)CO (stereo unspecified),8.4
6,Cc1cc(C(C)(C)C)c(O)c(C)c1CC1=NCCN1,7.43
7,O=C1NC(=O)C(c2ccccc2)(c2ccc(O)cc2)N1 (stereo unspecified),7.26
8,Cn1c(=O)c2[nH]cnc2n(C)c1=O,4.94
9,c1ccc(CNCc2ccccc2)cc1,6
10,CCCCCCCCCCCC[N+](C)(C)C,10
11,CCCCCCCCCC[N+](C)(C)Cc1ccccc1,10.4
12,Cc1ccccc1NC(=O)NC1CCCCC1,11
13,COC(=O)Nc1nc2ccc(S(=O)c3ccccc3)cc2[nH]1 (stereo unspecified),6.58
14,CCCCCCCCCCCC[N+](C)(C)CCCCCCCCCCCC,15.3
15,C=C(OCC)[P+](c1ccccc1)(c1ccccc1)c1ccccc1,9.3
16,CCNC(=O)NC1CCCCC1,7.7
17,c1ccc([P+](c2ccccc2)(c2ccccc2)c2ccccc2)cc1,8.63
18,Nc1ncnc2c1ncn2C1CC(O)C(COP(=O)(O)O)O1 (stereo unspecified),2.17
19,COc1nc(NC(C)C)nc(NC(C)C)n1,7.39

row,SMILES,LC retention time [min]
1,Nc1ncnc2c1ncn2C1OC(CO)C(O)C1O (stereo unspecified),3.2
2,CCCN(CCC)C(=O)SCc1ccccc1,15.5
3,CN1C(C(=O)Nc2ccccn2)=C(O)c2sccc2S1(=O)=O,7.36
4,Cn1cnc2c(=O)[nH]c(N)nc21,2.43
5,Cc1nnc(-c2ccccc2)c(=O)n1N,6.78
6,COc1cc(C(=O)O)cc(OC)c1O,5.7
7,CC1(C)CC(=O)CC(C)(C)N1,2.82
8,COc1ccc(C(=O)c2ccc(OC)cc2O)c(O)c1,12.7
9,Cc1ccc(C(C)NC(=O)C(NC(=O)OC(C)C)C(C)C)cc1 (stereo unspecified),11.9
10,c1ccc2sc(N3CCOCC3)nc2c1,9.36
11,CC1(C)OCC2OC3(C(=O)O)OC(C)(C)OC3C2O1 (stereo unspecified),7.35
12,Nc1nc2c(ncn2COCC(=O)O)c(=O)[nH]1,2.92
13,CN(C)c1ccc(-c2nc3ccccc3[nH]2)cc1,6.52
14,Oc1ccc(Nc2ccccc2)cc1,10
15,O=S(=O)(O)NC1CCCCC1,5.07
16,Cc1ccnc(NS(=O)(=O)c2ccc(N)cc2)n1,5.77
17,COC(=O)Nc1ccccc1,8.47
18,Cc1cc(OCCOCC[N+](C)(C)Cc2ccccc2)ccc1C(C)(C)CC(C)(C)C,12.3
19,Cc1ccccc1NC(=O)Nc1ccccc1C,11.1

row,SMILES,LC retention time [min]
1,CCCCC(CC)COC(=O)C(C#N)=C(c1ccccc1)c1ccccc1 (stereo unspecified),17.7
2,CCOc1cc(CC(=O)NC(CC(C)C)c2ccccc2N2CCCCC2)ccc1C(=O)O (stereo unspecified),10.3
3,O=c1[nH]c(=O)c2ccccc2[nH]1,5.39
4,NC(=O)c1ccc[n+](C2OC(COP(=O)(O)OP(=O)([O-])OCC3OC(n4cnc5c(N)ncnc54)C(O)C3O)C(O)C2O)c1 (stereo unspecified),2.09
5,CC(C)c1ccc(NC(=O)N(C)C)cc1,10.3
6,Nc1ncnc2c1ncn2CCOCP(=O)(O)O,2.12
7,O=P(Cc1ccccc1)(c1ccccc1)c1ccccc1,10.8
8,CN(C)C1C(=O)C(C(N)=O)=C(O)C2(O)C(=O)C3=C(O)c4c(O)cccc4C(C)(O)C3CC12 (stereo unspecified),5.46
9,CCCCCCCC[N+](C)(C)Cc1ccccc1,9.03
10,CC(C)(C(=O)O)c1ccc(C(=O)CCCN2CCC(OC(c3ccccc3)c3ccccc3)CC2)cc1,10
11,CN1CCN2c3ncccc3Cc3ccccc3C2C1 (stereo unspecified),5.46
12,c1ccc([P+](c2ccccc2)(c2ccccc2)C2CC2)cc1,7.79
13,CCOC(=O)Nc1ccc(N)cc1,4.86
14,CCCCCCCCCC[N+](C)(C)CCCCCCCCCC,13.4
15,CCCCC[N+](CCCC)(CCCC)CCCC,9.57
16,CN(Cc1cnc2nc(N)nc(N)c2n1)c1ccc(C(=O)NC(CCC(=O)O)C(=O)O)cc1 (stereo unspecified),4.98
17,CC(=O)c1ccc(C(=O)O)cc1,7.1
18,CC(C)(c1ccc(OCC(O)CO)cc1)c1ccc(OCC(O)CO)cc1 (stereo unspecified),8.23
